According to publication PMC7731314, “Tropinone-Derived Alkaloids as Potent Anticancer Agents: Synthesis, Tyrosinase Inhibition, Mechanism of Action, DFT Calculation, and Molecular Docking Studies” (International Journal of Molecular Sciences, 2020):
Where two headings read alike, the source gives them in different places.

What was measured:
[1] = system: human lung carcinoma (A549) cell line; experiment: MTT cell proliferation assay, A549; assay type: cell-based; details: antiproliferative, 96 h, read-out: IC50 ± SD A549
Procedure: (§1) The influence of the tested compounds on the proliferation of RPMI 8226 and A549 cells was estimated with the MTT assay as described previously. Briefly, 1 × 10^4 cells/mL (RPMI 8226) or 0.2 × 10^4 (A549) cells per well were seeded into 96-well plates and cultured (in growth medium containing 10% FBS) with different concentrations of each compound ranging from 3.125 to 100 μM. The control cells were treated with the vehicle DMSO (0.1%).

[2] = system: mouse skin melanoma (B16-F10) cell line; experiment: MTT cell proliferation assay, B16-F10; assay type: cell-based; details: B16-F10, antiproliferative, MTT, 72 h, read-out: IC50 ± SD B16-F10
From the text: (§2) The influence of the tested compounds on the proliferation of melanoma B16F10 and breast MDA-MB-231 cells was estimated with the MTT assay as described previously. The cells counted using an automated cell counter (Countess® II FL, Invitrogen by Thermo Fisher Scientific Inc., Waltham, MA USA) and plated in 96-well plates (Nunc Edge 2F, Thermo Fisher Scientific Inc.) at a density of 0.1 × 10^4 and 0.2 × 10^4 per well, respectively. A total of twenty-four hours later, drugs were applied with final concentration: 5, 0.5, 0.05, and 0.005 μg/mL, and after an additional seventy-two hours MTT staining was performed as follows: twenty microliters of 5 mg/mL MTT solution and was added to each well of 96-well plate incubated for 2 h. Subsequently, the medium was removed and crystals of formazan were solubilized in pure isopropanol. Absorbance readout was conducted immediately using plate reader Multiskan Spectrum at 570 nm (Thermo Electron Corporation, Waltham, MA, USA). The background optical density was measured in the wells filled with culture medium, without the cells. The biological evaluation was performed as three independent experiments. The IC50 values were calculated using ED50plus v 1.0 freeware software and the mean response and standard deviation were calculated using Excel software. All of the chemicals were obtained from Sigma-Aldrich.

[3] = system: human multiple myeloma (RPMI 8226) cell line; experiment: MTT cell proliferation assay, RPMI 8226; assay type: cell-based; details: antiproliferative, 96 h, read-out: IC50 ± SD RPMI 8226
Procedure: as §1

[4] = system: human breast adenocarcinoma (MDA-MB-231) cell line; experiment: MTT cell proliferation assay, MDA-MB-231; assay type: cell-based; details: MDA-MB-231, antiproliferative, MTT, 72 h, read-out: IC50 ± SD MDA-MB-231
From the text: as §2

RPMI 8226 cells = experiment: Annexin V-FITC/PI cell death by flow cytometry, RPMI 8226; assay type: cell-based, human; details: for IC50: Homo sapiens, read-out: IC50 for apoptosis (concentration inducing apoptosis in 50% of cells)
Procedure: (§3) The quantitative analysis of compound 3a-induced cell death was performed using an Annexin V-fluorescein isothiocyanate (FITC)/propidium iodide (PI) apoptosis kit (BD Biosciences, BD Pharmingen™, San Jose, CA, USA) as previously described. Briefly, the RPMI 8226 or A549 cells growing on the 6-well plates in the culture medium with 2% FBS were subjected to increasing concentrations of compound 3a (2.5, 5, 10, 20, or 40 μM) for 24 and 48 h. After the treatment, the cells were harvested, centrifuged at 1000 rpm and room temperature (RT) for 5 min, washed twice with PBS, and stained with […] of AnnexinV-FITC and […] of PI. After incubation for 15 min in the dark at room temperature, the cells were immediately analyzed using FACS Calibur. The intensity of fluorescence of AnnexinV-FITC and PI stained cells was determined by acquisition of at least 10,000 events per sample within the rate >60 events/s. The FACS data were analyzed using Cell Quest Pro Version 6.0. for the Macintosh operating system. The data were analyzed to determine the percentage of viable, early apoptotic, late apoptotic, and necrotic cells.

A549 cells = experiment: Annexin V-FITC/PI cell death by flow cytometry, A549; assay type: cell-based, human; details: for IC50: Homo sapiens, read-out: IC50 for apoptosis
Procedure: as §3

mushroom tyrosinase = mushroom tyrosinase (Agaricus bisporus, UniProt C7FF04); experiment: Kinetic analysis of the inhibition of tyrosinase (Lineweaver-Burk); assay type: biochemical; details: tyrosinase-catalyzed oxidation of L-DOPA
Procedure: To understand the mechanism of mushroom tyrosinase inhibition by new compounds 3a–3h, enzyme inhibition kinetic studies were performed. The mechanism of tyrosinase inhibition was determined using Lineweaver–Burk plot, which is a useful graphical method for analysis of the Michaelis–Menten equations used to determine the inhibition constant […].
A series of experiments were performed to determine the inhibition kinetics of compounds by following the already reported method. The inhibitor concentrations for compounds were 50 and 100 µM. Substrate L-DOPA concentration was between 100 and 250 µM in all kinetic studies. Maximal initial velocity was determined from the initial linear portion of absorbance up to ten minutes after addition of enzyme. The inhibition type of the enzyme, Michaelis constant (KM) and maximal velocity (Vmax) were determined by Lineweaver–Burk plots of inverse of velocities (1/V) versus inverse of substrate concentration 1/[L-DOPA] mM^−1.

Sequence of mushroom tyrosinase (C7FF04 1-392): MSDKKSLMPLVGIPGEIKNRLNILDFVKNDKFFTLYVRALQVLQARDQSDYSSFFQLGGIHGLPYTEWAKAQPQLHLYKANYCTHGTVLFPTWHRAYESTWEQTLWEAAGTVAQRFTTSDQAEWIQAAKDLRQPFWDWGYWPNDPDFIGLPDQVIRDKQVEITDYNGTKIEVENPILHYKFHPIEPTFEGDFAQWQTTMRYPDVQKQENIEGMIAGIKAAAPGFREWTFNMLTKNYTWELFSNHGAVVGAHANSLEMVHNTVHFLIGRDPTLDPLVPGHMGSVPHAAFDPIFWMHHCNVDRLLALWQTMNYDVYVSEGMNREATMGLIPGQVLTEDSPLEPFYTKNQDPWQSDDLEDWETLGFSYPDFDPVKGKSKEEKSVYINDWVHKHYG

`CN1C2CCC1CC(=NNc1nc(-c3ccc(I)cc3)cs1)C2` [Compound 3a, 4-(4-Iodophenyl)-2-(2-(8-methyl-8-azabicyclo[3.2.1]octan-3-ylidene)hydrazinyl)thiazole] was tested, and the IC50 [1] was 13.8 ± 1.9 µM, the IC50 [2] was 1.51 ± 0.14 µM and the IC50 [3] was 9.32 ± 0.71 µM. The IC50 [4] was 2.26 ± 0.38 µM, the IC50 (RPMI 8226 cells; RPMI 8226, 24 h) was 14.6 µM and the IC50 (RPMI 8226 cells; RPMI 8226, 48 h) was 7.91 µM. The “Apoptosis (early + late)” value (RPMI 8226 cells; RPMI 8226, 2.5 µM, 24 hours) was 19.53 ± 2.64 % of cells ± SD, the Necrosis (RPMI 8226 cells; RPMI 8226, 2.5 µM, 24 hours) was 3.62 ± 0.87 % of cells ± SD and the “Apoptosis (early + late)” value (RPMI 8226 cells; RPMI 8226, 2.5 µM, 48 hours) was 20.93 ± 1.83 % of cells ± SD. For the same compound, the Necrosis (RPMI 8226 cells; RPMI 8226, 2.5 µM, 48 hours) was 5.54 ± 0.44 % of cells ± SD, the “Apoptosis (early + late)” value (RPMI 8226 cells; RPMI 8226, 5 µM, 24 hours) was 22.23 ± 6.01 % of cells ± SD and the Necrosis (RPMI 8226 cells; RPMI 8226, 5 µM, 24 hours) was 6.35 ± 2.57 % of cells ± SD. The “Apoptosis (early + late)” value (RPMI 8226 cells; RPMI 8226, 5 µM, 48 hours) was 31.71 ± 11.36 % of cells ± SD, the Necrosis (RPMI 8226 cells; RPMI 8226, 5 µM, 48 hours) was 7.53 ± 2.61 % of cells ± SD and the “Apoptosis (early + late)” value (RPMI 8226 cells; RPMI 8226, 10 µM, 24 hours) was 39.58 ± 9.33 % of cells ± SD. The Necrosis (RPMI 8226 cells; RPMI 8226, 10 µM, 24 hours) was 9.94 ± 2.73 % of cells ± SD, the “Apoptosis (early + late)” value (RPMI 8226 cells; RPMI 8226, 10 µM, 48 hours) was 58.25 ± 21.57 % of cells ± SD and the Necrosis (RPMI 8226 cells; RPMI 8226, 10 µM, 48 hours) was 11.08 ± 5.38 % of cells ± SD. The “Apoptosis (early + late)” value (RPMI 8226 cells; RPMI 8226, 20 µM, 24 hours) was 60.41 ± 0.99 % of cells ± SD, the Necrosis (RPMI 8226 cells; RPMI 8226, 20 µM, 24 hours) was 18.5 ± 2.38 % of cells ± SD and the “Apoptosis (early + late)” value (RPMI 8226 cells; RPMI 8226, 20 µM, 48 hours) was 76.93 ± 14.34 % of cells ± SD. The Necrosis (RPMI 8226 cells; RPMI 8226, 20 µM, 48 hours) was 20.18 ± 11.99 % of cells ± SD, the “Apoptosis (early + late)” value (A549 cells; A549, 2.5 µM, 24 hours) was 14.30±2.21 % of cells ± SD and the Necrosis (A549 cells; A549, 2.5 µM, 24 hours) was 4.79±1.14 % of cells ± SD. For the same compound, the “Apoptosis (early + late)” value (A549 cells; A549, 2.5 µM, 48 hours) was 18.41±3.95 % of cells ± SD, the Necrosis (A549 cells; A549, 2.5 µM, 48 hours) was 4.11±1.44 % of cells ± SD and the “Apoptosis (early + late)” value (A549 cells; A549, 5 µM, 24 hours) was 14.82±2.42 % of cells ± SD. The Necrosis (A549 cells; A549, 5 µM, 24 hours) was 4.40±1.66 % of cells ± SD, the “Apoptosis (early + late)” value (A549 cells; A549, 5 µM, 48 hours) was 22.48±8.36 % of cells ± SD and the Necrosis (A549 cells; A549, 5 µM, 48 hours) was 4.93±4.26 % of cells ± SD. The “Apoptosis (early + late)” value (A549 cells; A549, 10 µM, 24 hours) was 18.18±2.52 % of cells ± SD, the Necrosis (A549 cells; A549, 10 µM, 24 hours) was 4.87±1.35 % of cells ± SD and the “Apoptosis (early + late)” value (A549 cells; A549, 10 µM, 48 hours) was 27.17±11.71 % of cells ± SD. For the same compound, the Necrosis (A549 cells; A549, 10 µM, 48 hours) was 4.09±2.58 % of cells ± SD, the “Apoptosis (early + late)” value (A549 cells; A549, 20 µM, 24 hours) was 23.43±4.57 % of cells ± SD and the Necrosis (A549 cells; A549, 20 µM, 24 hours) was 4.56±1.90 % of cells ± SD. For the same compound, the “Apoptosis (early + late)” value (A549 cells; A549, 20 µM, 48 hours) was 40.20±9.87 % of cells ± SD, the Necrosis (A549 cells; A549, 20 µM, 48 hours) was 4.87±3.04 % of cells ± SD and the “Apoptosis (early + late)” value (A549 cells; A549, 40 µM, 24 hours) was 73.96±19.94 % of cells ± SD. For the same compound, the Necrosis (A549 cells; A549, 40 µM, 24 hours) was 7.89±1.10 % of cells ± SD, the “Apoptosis (early + late)” value (A549 cells; A549, 40 µM, 48 hours) was 89.43±6.65 % of cells ± SD and the Necrosis (A549 cells; A549, 40 µM, 48 hours) was 8.81±6.51 % of cells ± SD. For the same compound, the Necrosis induction (A549 cells; A549, up to highest concentration 40 µM) was “did not induce necrosis”, the IC50 (A549 cells; A549, 24 h) was 27.7 µM and the IC50 (A549 cells; A549, 48 h) was 17.4 µM. For the same compound, the “Inhibitory Mechanism” value (mushroom tyrosinase) was “mixed”.
